Assay results from publication doi:10.1101/2024.09.05.611349v1 (biorxiv, 2024).
Values after ≈ are worked out from the molar mass of the structure shown. Like-named read-outs stand apart in the source and are kept apart here.

Columns and labels:
Assay in all cases: microbe, parasite or virus in culture
Parameters in all cases: species or system gram-positive clinical isolates
[1] = system: Staphylococcus epidermidis MRSE 15-78; details: Staphylococcus epidermidis, MRSE
[2] = system: Enterococcus faecalis EFA 15-57; details: Enterococcus faecalis
[3] = system: Enterococcus faecium EFM 15-9; details: Enterococcus faecium
[4] = system: Staphylococcus epidermidis MRSE 17-1; details: Staphylococcus epidermidis, MRSE
[5] = system: Staphylococcus aureus MSSA 15-2; details: Staphylococcus aureus, MSSA
[6] = system: Staphylococcus aureus MSSA 16-2; details: Staphylococcus aureus, MSSA
[7] = system: Staphylococcus aureus MRSA 17-3; details: Staphylococcus aureus, MRSA
[8] = system: Enterococcus faecalis EFA 15-68; details: Enterococcus faecalis
[9] = system: Staphylococcus aureus MRSA 16-2; details: Staphylococcus aureus, MRSA
[10] = system: Enterococcus faecium EFM 15-52; details: Enterococcus faecium
[11] = system: Staphylococcus aureus MRSA 17-1; details: Staphylococcus aureus, MRSA
[12] = system: Enterococcus faecalis EFA 15-1; details: Enterococcus faecalis
[13] = system: Staphylococcus epidermidis MRSE 15-1; details: Staphylococcus epidermidis, MRSE
[14] = system: Enterococcus faecium EFM 15-7; details: Enterococcus faecium
[15] = system: Staphylococcus epidermidis MRSE 15-3; details: Staphylococcus epidermidis, MRSE
[16] = system: Staphylococcus aureus MRSA 15-1; details: Staphylococcus aureus, MRSA
[17] = system: Staphylococcus epidermidis MRSE 15-83; details: Staphylococcus epidermidis, MRSE
[18] = system: Staphylococcus aureus MSSA 15-8; details: Staphylococcus aureus, MSSA
[19] = system: Enterococcus faecium EFM 15-8; details: Enterococcus faecium
[20] = system: Staphylococcus aureus MRSA 17-7; details: Staphylococcus aureus, MRSA
[21] = system: Staphylococcus epidermidis MRSE 15-76; details: Staphylococcus epidermidis, MRSE
[22] = system: Enterococcus faecium EFM 15-6; details: Enterococcus faecium
[23] = system: Enterococcus faecalis EFA 15-2; details: Enterococcus faecalis
[24] = system: Staphylococcus aureus MSSA 16-1; details: Staphylococcus aureus, MSSA
[25] = system: Staphylococcus aureus MRSA 17-6; details: Staphylococcus aureus, MRSA
[26] = system: Staphylococcus aureus MRSA 17-10; details: Staphylococcus aureus, MRSA
[27] = system: Staphylococcus epidermidis MRSE 15-81; details: Staphylococcus epidermidis, MRSE
[28] = read-out: MIC(μg/ml) / vancomycin

Structure (SMILES): CCCCCOc1ccc(C(=O)NNC(=S)NC(C)=O)cc1 [1b, N-(2-(4-(n-pentoxy)benzoyl)hydrazine-1-carbonothioyl)acetamide]
- MIC ([1]; read-out: MIC(μg/ml) / 1b): 2 µg/mL (≈ 6.18 µM)
- MIC ([2]; EFA1557, read-out: MIC(μg/ml) / 1b): 4 µg/mL (≈ 12.4 µM)
- MIC ([3]; EFM159, read-out: MIC(μg/ml) / 1b): 4 µg/mL (≈ 12.4 µM)
- MIC ([4]; read-out: MIC(μg/ml) / 1b): 0.5 µg/mL (≈ 1.55 µM)
- MIC ([5]; read-out: MIC(μg/ml) / 1b): 2 µg/mL (≈ 6.18 µM)
- MIC ([6]; read-out: MIC(μg/ml) / 1b): 1 µg/mL (≈ 3.09 µM)
- MIC ([7]; read-out: MIC(μg/ml) / 1b): 2 µg/mL (≈ 6.18 µM)
- MIC ([8]; EFA1568, read-out: MIC(μg/ml) / 1b): 4 µg/mL (≈ 12.4 µM)
- MIC ([9]; read-out: MIC(μg/ml) / 1b): 2 µg/mL (≈ 6.18 µM)
- MIC ([10]; EFM1552, read-out: MIC(μg/ml) / 1b): 8 µg/mL (≈ 24.7 µM)
- MIC ([11]; read-out: MIC(μg/ml) / 1b): 2 µg/mL (≈ 6.18 µM)
- MIC ([12]; EFA151, read-out: MIC(μg/ml) / 1b): 8 µg/mL (≈ 24.7 µM)
- MIC ([13]; read-out: MIC(μg/ml) / 1b): 4 µg/mL (≈ 12.4 µM)
- MIC ([14]; EFM157, read-out: MIC(μg/ml) / 1b): 2 µg/mL (≈ 6.18 µM)
- MIC ([15]; read-out: MIC(μg/ml) / 1b): 2 µg/mL (≈ 6.18 µM)
- MIC ([16]; read-out: MIC(μg/ml) / 1b): 4 µg/mL (≈ 12.4 µM)
- MIC ([17]; read-out: MIC(μg/ml) / 1b): 1 µg/mL (≈ 3.09 µM)
- MIC ([18]; read-out: MIC(μg/ml) / 1b): 2 µg/mL (≈ 6.18 µM)
- MIC ([19]; EFM158, read-out: MIC(μg/ml) / 1b): 2 µg/mL (≈ 6.18 µM)
- MIC ([20]; read-out: MIC(μg/ml) / 1b): 2 µg/mL (≈ 6.18 µM)
- MIC ([21]; read-out: MIC(μg/ml) / 1b): 2 µg/mL (≈ 6.18 µM)
- MIC ([22]; EFM156, read-out: MIC(μg/ml) / 1b): 2 µg/mL (≈ 6.18 µM)
- MIC ([23]; EFA152, read-out: MIC(μg/ml) / 1b): 8 µg/mL (≈ 24.7 µM)
- MIC ([24]; read-out: MIC(μg/ml) / 1b): 1 µg/mL (≈ 3.09 µM)
- MIC ([25]; read-out: MIC(μg/ml) / 1b): 2 µg/mL (≈ 6.18 µM)
- MIC ([26]; read-out: MIC(μg/ml) / 1b): 2 µg/mL (≈ 6.18 µM)
- MIC ([27]; read-out: MIC(μg/ml) / 1b): 0.5 µg/mL (≈ 1.55 µM)

Structure (SMILES): CN[C@H](CC(C)C)C(=O)N[C@H]1C(=O)N[C@@H](CC(N)=O)C(=O)N[C@H]2C(=O)N[C@H]3C(=O)N[C@H](C(=O)N[C@H](C(=O)O)c4cc(O)cc(O)c4-c4cc3ccc4O)[C@H](O)c3ccc(c(Cl)c3)Oc3cc2cc(c3O[C@@H]2O[C@H](CO)[C@@H](O)[C@H](O)[C@H]2O[C@H]2C[C@](C)(N)[C@H](O)[C@H](C)O2)Oc2ccc(cc2Cl)[C@H]1O [vancomycin]
- MIC [1, 28]: 1 µg/mL (≈ 0.69 µM)
- MIC ([2]; EFA1557, read-out: MIC(μg/ml) / vancomycin): 2 µg/mL (≈ 1.38 µM)
- MIC ([3]; EFM159, read-out: MIC(μg/ml) / vancomycin): 0.5 µg/mL (≈ 0.345 µM)
- MIC [4, 28]: 1 µg/mL (≈ 0.69 µM)
- MIC [5, 28]: 1 µg/mL (≈ 0.69 µM)
- MIC [6, 28]: 0.5 µg/mL (≈ 0.345 µM)
- MIC [7, 28]: 1 µg/mL (≈ 0.69 µM)
- MIC ([8]; EFA1568, read-out: MIC(μg/ml) / vancomycin): 0.5 µg/mL (≈ 0.345 µM)
- MIC [9, 28]: 1 µg/mL (≈ 0.69 µM)
- MIC ([10]; EFM1552, read-out: MIC(μg/ml) / vancomycin): 2 µg/mL (≈ 1.38 µM)
- MIC [11, 28]: 0.5 µg/mL (≈ 0.345 µM)
- MIC ([12]; EFA151, read-out: MIC(μg/ml) / vancomycin): 0.5 µg/mL (≈ 0.345 µM)
- MIC [13, 28]: 2 µg/mL (≈ 1.38 µM)
- MIC ([14]; EFM157, read-out: MIC(μg/ml) / vancomycin): 0.5 µg/mL (≈ 0.345 µM)
- MIC [15, 28]: 2 µg/mL (≈ 1.38 µM)
- MIC [16, 28]: 2 µg/mL (≈ 1.38 µM)
- MIC [17, 28]: 1 µg/mL (≈ 0.69 µM)
- MIC [18, 28]: 0.5 µg/mL (≈ 0.345 µM)
- MIC ([19]; EFM158, read-out: MIC(μg/ml) / vancomycin): 0.5 µg/mL (≈ 0.345 µM)
- MIC [20, 28]: 0.25 µg/mL (≈ 0.173 µM)
- MIC [21, 28]: 2 µg/mL (≈ 1.38 µM)
- MIC ([22]; EFM156, read-out: MIC(μg/ml) / vancomycin): 1 µg/mL (≈ 0.69 µM)
- MIC ([23]; EFA152, read-out: MIC(μg/ml) / vancomycin): 0.5 µg/mL (≈ 0.345 µM)
- MIC [24, 28]: 0.5 µg/mL (≈ 0.345 µM)
- MIC [25, 28]: 0.5 µg/mL (≈ 0.345 µM)
- MIC [26, 28]: 1 µg/mL (≈ 0.69 µM)
- MIC [27, 28]: 2 µg/mL (≈ 1.38 µM)
